Read-outs that look alike come from different tables or passages of the source. Non-standard residues stand in square brackets, D forms with d. Residues, ends and D or L forms follow the SMILES beside them. No end group written: not given here. *: point of attachment. Heptanoyl = CCCCCCC(=O)*; Pentanoyl = CCCCC(=O)*
Experiments:
[1] = test system: A. baumannii; settings: 20 h
[2] = test system: E. cloacae; settings: 20 h
[3] = test system: E. coli (K-12 MG1655)
[4] = test system: E. faecium; settings: 20 h
[5] = test system: K. pneumoniae; settings: 20 h
[6] = test system: P. aeruginosa; settings: 20 h
[7] = test system: S. aureus (ATCC 29213, MSSA); settings: ATCC 29213, 20 h
[8] = test system: human erythrocytes; experiment: Hemolytic activity; assay type: cell-based; settings: 15% suspension in PBS, 1 h, 37 °C, absorbance 540 nm, highest tested concentration 100 µM
Procedure: The hemolytic activity of the lipopeptides was investigated by collecting blood from healthy volunteers in heparinized vacutainers. Briefly, the blood was centrifuged at 600 × g for 5 min and the erythrocyte pellet was washed three times in PBS. The cells were then suspended in PBS and added to 96-well plates (15% erythrocyte suspension/well), containing the lipopeptides with two-fold serial dilution. The plates were incubated for 1 h at 37 °C followed by centrifugation for 5 min at 900×g and absorbance measurement of the supernatants at 540 nm. Hemolytic activity (%) was calculated by subtracting the negative control from all values and normalization against the positive control (0.5% Triton X-100), that was set to 100%. All experiments, each in duplicate, were repeated three times.

[9] = Carboxyfluorescein release assay, bacterial liposome model; assay type: biochemical; settings: 75:25 POPC:POPG liposomes, 25 µM lipid, 10 mM PBS pH 7.4, 10^–5–10^2 µM peptide, 60 min, fluorescence, Hill fit, n = 3; read-out: EC50 Bacterial (concentration that triggers 50% CF release)
How it was run: (§1)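 CF-loaded extruded 0.1 µm unilamellar liposomes: bacterial POPC:POPG 75:25, mammalian POPC:POPS:Chol 65:5:30. Liposomes at 25 µM lipid in PBS pH 7.4 incubated with peptide (10^–5–10^2 µM; n = 3), fluorescence read every 2.5 min for 1 h. Release normalized to 1% Triton X-100; EC50 from Hill-1 fit.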

[10] = Carboxyfluorescein release assay, mammalian liposome model; assay type: biochemical; settings: 65:5:30 POPC:POPS:Chol. liposomes, 25 µM lipid, 10 mM PBS pH 7.4, 10^–5–10^2 µM peptide, 60 min, fluorescence, Hill fit, n = 3; read-out: EC50 Mammalial (concentration that triggers 50% CF release)
How it was run: as §1

[11] = test system: S. aureus (ATCC 29213); assay type: cell-based; settings: for S. aureus MBC, antibiotic alone / S. aureus MIC, antibiotic alone: Table 6, ATCC 29213, checkerboard assay, 50:50 PBS/LB-broth, 200 µL
Procedure: The broth microdilution method was used to determine minimal inhibitory concentration (MIC) and minimal bactericidal concentration (MBC), in accordance with the EUCAST standards for the broth microdilution method. […] In brief, two-fold serial dilutions of the lipopeptides were performed in a 96-well plate in PBS, with a final volume of 100 µl per well, after which 100 µl of LB-broth media containing approximately 5 × 10^5 CFU/ml of bacteria was added to each well. The plate was then incubated for 20 h in 37 °C on a shaker (400 rpm). The effect of lipopeptide-antibiotic combinations was investigated by performing checkerboard assays. The assays were performed in accordance with the MIC and MBC tests conducted above, but with horizontal and longitudinal two-fold serial dilutions of the tested compounds. […] The fractional inhibitory concentration (FIC) and fractional bactericidal concentration (FBC) were calculated by the equation (MIC or MBC of peptide in combination/MIC or MBC of peptide alone) + (MIC or MBC of antibiotic in combination/MIC or MBC of antibiotic alone). […] All experiments were repeated at least three times.

[12] = test system: E. coli (K-12 MG1655); assay type: cell-based
Procedure: The broth microdilution method was used to determine minimal inhibitory concentration (MIC) and minimal bactericidal concentration (MBC), in accordance with the EUCAST standards for the broth microdilution method. Two-fold serial dilutions of the lipopeptides were used, and the final concentrations ranged from 0.19 to 100 µM. In brief, two-fold serial dilutions of the lipopeptides were performed in a 96-well plate in PBS, with a final volume of 100 µl per well, after which 100 µl of LB-broth media containing approximately 5 × 10^5 CFU/ml of bacteria was added to each well. The plate was then incubated for 20 h in 37 °C on a shaker (400 rpm). The effect of lipopeptide-antibiotic combinations was investigated by performing checkerboard assays. The assays were performed in accordance with the MIC and MBC tests conducted above, but with horizontal and longitudinal two-fold serial dilutions of the tested compounds. […] The fractional inhibitory concentration (FIC) and fractional bactericidal concentration (FBC) were calculated by the equation (MIC or MBC of peptide in combination/MIC or MBC of peptide alone) + (MIC or MBC of antibiotic in combination/MIC or MBC of antibiotic alone). Synergy was defined as FIC/FBC ≤ 0.5, additive when 0.5 < FIC/FBC ≤ 1, indifferent when 1 < FIC/FBC < 2 and antagonistic when FIC/FBC ≥ 2. All experiments were repeated at least three times.

[13] = Dynamic light scattering, critical aggregation concentration; assay type: physicochemical; settings: DLS scattering intensity at 90°, 10 mM PBS pH 7.4, serial dilution 100 µM to 0.01 nM, 22 °C, average of 10 runs of 30 s; estimated
Procedure: Lipopeptide aggregation was evaluated on a ALV/CGS-8F Platform (ALV-GmbH, Langen, Germany) equipped with a […] He–Ne laser. Scattered light was collected at 90°. PBS (10 mM, pH 7.4) was chosen as buffer, and filtered with a 0.22 µm filter prior to use. The samples were prepared in a cylindrical glass cuvette immersed in refractive-index matching toluene. The peptides were serially diluted between 100 µM and 0.01 nM, sonicated for 1 min and incubated for 5 min at 22 °C and vortexed prior to measuring. The temperature was controlled throughout the experiment with the use of a circulating water bath. Data were analysed with ALV-Correlator (Version 3.0, ALV-GmbH, Langen, Germany) software, and the scattering intensity was obtained through an average of 10 consecutive 30 s runs.

[14] = Table 3, K-12 MG1655, broth microdilution, 50:50 PBS/LB-broth, 200 µL, 20 h, 37 °C
[15] = Table 6, K-12 MG1655, checkerboard assay, 50:50 PBS/LB-broth, 200 µL

| Compound | MBC [1] [µM] | MIC [1] [µM] | MBC [2] [µM] | MIC [2] [µM] | E. coli MBC [3, 14] [µM] | E. coli MIC [3, 14] [µM] | MBC [4] [µM] | MIC [4] [µM] | MBC [5] [µM] | MIC [5] [µM] | MBC [6] [µM] | MIC [6] [µM] | S. aureus MBC [7] [µM] | S. aureus MIC [7] [µM] | HC, hemolytic concentration at 5% hemolytic activity [8] [µM] | EC50 [9] [nM] | EC50 [10] [nM] | other results |
| --- | --- | --- | --- | --- | --- | --- | --- | --- | --- | --- | --- | --- | --- | --- | --- | --- | --- | --- |
| CCCCC(=O)N[C@@H](CC(C)C)C(=O)NCC(=O)N[C@@H](CC(C)C)C(=O)N[C@@H](CCCCN)C(=O)N[C@@H](CC(C)C)C(=O)N[C@@H](CC(C)C)C(=O)N[C@@H](Cc1c[nH]c2ccccc12)C(=O)N[C@@H](CO)C(=O)N[C@@H](C)C(=O)N[C@@H](Cc1ccc(O)cc1)C(=O)N[C@@H](CCCCN)C(=O)N[C@@H](Cc1c[nH]cn1)C(=O)N[C@@H](CCCNC(=N)N)C(=O)N[C@@H](CCCCN)C(=O)N[C@H](C(=O)N[C@@H](CC(C)C)C(N)=O)[C@@H](C)O [L-6-C5-Leu] (Pentanoyl-LGLKLLWSAYKHRKTL-NH2) | 3.1 | 3.1 | > 100 | > 100 | 6.2 | 6.2 | 6.3 | 3.1 | 50 | 25 | 50 | 25 | 3.1 | 3.1 | > 100 | 110 | 3990 |  |
| CCCCC(=O)N[C@H](CC(C)C)C(=O)NCC(=O)N[C@H](CC(C)C)C(=O)N[C@H](CCCCN)C(=O)N[C@H](CC(C)C)C(=O)N[C@H](CC(C)C)C(=O)N[C@H](Cc1c[nH]c2ccccc12)C(=O)N[C@H](CO)C(=O)N[C@H](C)C(=O)N[C@H](Cc1ccc(O)cc1)C(=O)N[C@H](CCCCN)C(=O)N[C@H](Cc1c[nH]cn1)C(=O)N[C@H](CCCNC(=N)N)C(=O)N[C@H](CCCCN)C(=O)N[C@@H](C(=O)N[C@H](CC(C)C)C(N)=O)[C@H](C)O [D-6-C5-Leu] (Pentanoyl-[dL]G[dL][dK][dL][dL][dW][dS][dA][dY][dK][dH][dR][dK][dT][dL]-NH2) | 3.1 | 3.1 | 50 | 25 | 3.1 | 3.1 | 3.1 | 3.1 | 25 | 12.5 | 25 | 12.5 | 3.1 | 3.1 | > 100 | 130 | 4080 | S. aureus MBC, lipopeptide alone ([11]; ATCC 29213, 20 h): 3.1 µM; S. aureus MIC, lipopeptide alone ([11]; ATCC 29213, 20 h): 3.1 µM; E. coli MBC, lipopeptide alone ([12]; K-12, 20 h): 3.1 µM; E. coli MIC, lipopeptide alone ([12]; K-12, 20 h): 3.1 µM |
| O=C(O)c1cn(C2CC2)c2cc(N3CCNCC3)c(F)cc2c1=O [Ciprofloxacin] |  |  |  |  |  |  |  |  |  |  |  |  |  |  |  |  |  | S. aureus MBC, antibiotic alone [11]: 0.25 µg/mL; S. aureus MIC, antibiotic alone [11]: 0.25 µg/mL; E. coli MBC, antibiotic alone [12, 15]: 0.125 µg/mL; E. coli MIC, antibiotic alone [12, 15]: 0.125 µg/mL |
| CO[C@H]1/C=C/O[C@@]2(C)Oc3c(C)c(O)c4c(O)c(c(/C=N/N5CCN(C)CC5)c(O)c4c3C2=O)NC(=O)/C(C)=C\C=C\[C@H](C)[C@H](O)[C@@H](C)[C@@H](O)[C@@H](C)[C@H](OC(C)=O)[C@@H]1C [Rifampicin] |  |  |  |  |  |  |  |  |  |  |  |  |  |  |  |  |  | S. aureus MBC, antibiotic alone [11]: 0.062 µg/mL; S. aureus MIC, antibiotic alone [11]: 0.062 µg/mL; E. coli MBC, antibiotic alone [12, 15]: 100 µg/mL |
| CCCCC(=O)N[C@H](CC(C)C)C(=O)NCC(=O)N[C@@H](C(=O)N[C@H](CCCCN)C(=O)N[C@@H](C(=O)N[C@H](CC(C)C)C(=O)N[C@H](Cc1c[nH]c2ccccc12)C(=O)N[C@H](CO)C(=O)N[C@H](C)C(=O)N[C@H](Cc1ccc(O)cc1)C(=O)N[C@H](CCCCN)C(=O)N[C@H](Cc1c[nH]cn1)C(=O)N[C@H](CCCNC(=N)N)C(=O)N[C@H](CCCCN)C(=O)N[C@@H](C(=O)N[C@@H](C(N)=O)[C@H](C)CC)[C@H](C)O)[C@H](C)CC)[C@H](C)CC [D-6-C5] (Pentanoyl-[dL]G[dI][dK][dI][dL][dW][dS][dA][dY][dK][dH][dR][dK][dT][dI]-NH2) | 3.1 | 3.1 | 50 | 25 | 3.1 | 3.1 | 3.1 | 3.1 | 50 | 25 | 50 | 25 | 6.2 | 3.1 | > 100 | 120 | 13100 | S. aureus MIC, lipopeptide alone ([11]; ATCC 29213, 20 h): 3.1 µM; E. coli MIC, lipopeptide alone ([12]; K-12, 20 h): 3.1 µM |
| LGIKILWSAYKHRKTI-NH2 [L-6] |  |  |  |  |  |  |  |  |  |  |  |  | > 100 | > 100 |  | 150 | > 100000 | E. coli MBC ([3]; K-12, 20 h): > 100 µM; E. coli MIC ([3]; K-12, 20 h): > 100 µM; critical aggregation concentration (CAC) [13]: 10 µM |
| CCCCCCC(=O)N[C@@H](CC(C)C)C(=O)NCC(=O)N[C@H](C(=O)N[C@@H](CCCCN)C(=O)N[C@H](C(=O)N[C@@H](CC(C)C)C(=O)N[C@@H](Cc1c[nH]c2ccccc12)C(=O)N[C@@H](CO)C(=O)N[C@@H](C)C(=O)N[C@@H](Cc1ccc(O)cc1)C(=O)N[C@@H](CCCCN)C(=O)N[C@@H](Cc1c[nH]cn1)C(=O)N[C@@H](CCCNC(=N)N)C(=O)N[C@@H](CCCCN)C(=O)N[C@H](C(=O)N[C@H](C(N)=O)[C@@H](C)CC)[C@@H](C)O)[C@@H](C)CC)[C@@H](C)CC [L-6-C7] (Heptanoyl-LGIKILWSAYKHRKTI-NH2) |  |  |  |  | 6.2 | 6.2 |  |  |  |  |  |  | 3.1 | 3.1 | 80 | 220 | 1950 | critical aggregation concentration (CAC) [13]: 0.8 µM |

Source: PMC10011573, “Development of novel broad-spectrum antimicrobial lipopeptides derived from plantaricin NC8 β” (Scientific Reports, 2023)
